This is an account of results in patent publication US8173812B2, “Quinolines and their therapeutic use” (Pulmagen Therapeutics (Asthma) Limited, priority 2007, dated 2012).

The assay concerns the target T1, CRTH2 receptor (Homo sapiens, UniProt Q9Y5Y4).
T1 sequence (Q9Y5Y4 1-395): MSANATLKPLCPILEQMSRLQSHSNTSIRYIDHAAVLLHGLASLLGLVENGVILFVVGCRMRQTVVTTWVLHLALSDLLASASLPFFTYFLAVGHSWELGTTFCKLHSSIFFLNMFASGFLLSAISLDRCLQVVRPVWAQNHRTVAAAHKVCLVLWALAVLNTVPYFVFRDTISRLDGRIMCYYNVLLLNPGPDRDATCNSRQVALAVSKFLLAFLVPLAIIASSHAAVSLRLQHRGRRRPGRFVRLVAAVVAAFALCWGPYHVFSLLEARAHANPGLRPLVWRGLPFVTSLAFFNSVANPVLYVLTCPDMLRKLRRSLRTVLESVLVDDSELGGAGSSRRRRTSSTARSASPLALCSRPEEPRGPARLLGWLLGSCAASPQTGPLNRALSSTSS
In words: CRTH2 radioligand binding assay ([3H]-PGD2 displacement, SPA). The conditions noted are these: HEK cell membranes expressing the CRTH2 receptor, 1 nM [3H]-PGD2. The method, then:
Radioligand Binding Assay
The receptor binding assay is performed in a final volume of 200 μL binding buffer [10 mM BES (pH 7.4), 1 mM EDTA, 10 mM manganese chloride, 0.01% BSA] and 1 nM [^3H]-PGD2 (Amersham Biosciences UK Ltd). Ligands are added in assay buffer containing a constant amount of DMSO (1% by volume). Total binding is determined using 1% by volume of DMSO in assay buffer and non-specific binding is determined using 10 μM of unlabeled PGD2 (Sigma). Human embryonic kidney (HEK) cell membranes (3.5 μg) expressing the CRTH2 receptor are incubated with 1.5 mg wheatgerm agglutinin SPA beads and 1 nM [^3H]-PGD2 (Amersham Biosciences UK Ltd) and the mixture incubated for 3 hours at room temperature. Bound [^3H]-PGD2 is detected using a Microbeta TRILUX liquid scintillation counter (Perkin Elmer). Compound IC50 value is determined using a 6-point dose response curve in duplicate with a semi-log compound dilution series. IC50 calculations are performed using Excel and XLfit (Microsoft), and this value is used to determine a Ki value for the test compound using the Cheng-Prusoff equation.

pIC50: −log10 of the molar value.

Regarding `CCc1nc2c(F)ccc(OCC(=O)O)c2c(OC(F)F)c1Cc1ccc(-n2cccn2)cc1` [Example 1, [4-difluoromethoxy-2-ethyl-8-fluoro-3-(4-pyrazol-1-ylbenzyl)quinolin-5-yloxy]acetic acid], the negative-log IC50 (pIC50) (usually the negative decadic logarithm of the IC50, by convention in mol/L) was 8.27.

The compound `CCc1nc2c(F)ccc(OCC(=O)O)c2c(OC(F)F)c1Cc1ccc(-c2ncco2)cc1` [Example 2, [4-difluoromethoxy-2-ethyl-8-fluoro-3-(4-oxazol-2-ylbenzyl)quinolin-5-yloxy]acetic acid] showed a negative logarithm of the IC50 (pIC50) of 8.20.
